Experimental data from patent publication US6528251B2, “Method of managing the chemotherapy of patients who are HIV positive based on the phenotypic drug sensitivity of human HIV strains” (Virco N.V., priority 1996, dated 2003).
Like-named read-outs stand apart in the source and are kept apart here.

What was measured:
Format in all cases: cell-based, HIV-1
[1] = tested on: recombinant virus from patient viral RNA (Example 11); assay: Recombinant virus assay (MT4/MTT), patient of Example 11 (therapy history RT and protease inhibitors); details: for IC50: Human immunodeficiency virus 1, Table 7, Example 11 patient virus
Method: (§1) RNA was isolated from 100 μl of plasma according to the method described by Boom, R. et al. (1990, supra), and was reverse transcribed with the GeneAmp reverse transcriptase kit (Perkin Elmer) as described by the manufacturer and using an HIV-1 specific downstream primer (OUT3: 5′-CATTGCTCTCCAATTACTGTGATATTTCTCATC-3′; SEQ ID NO: 1). PCR on reverse transcribed RNA was performed with inner and outer primers as described by Kellam, P. and Larder, B. A. (1994, supra). After chloroform extraction and centrifugation on Centricon 100 columns or centrifugation on anion-exchange spin columns (Quiagen), the isolated PCR product was ready for use in the transfection reactions.
(§2) MT4 cells were subcultured at a density of 250,000 cells/ml before transfection (exponential growth phase). Cells were pelleted and resuspended in phosphate buffered saline (PBS) at a concentration of […]. A 0.8 ml portion (2.5 10E6 cells/ml) was used for each transfection. Transfection was performed with the Bio-Rad Gene pulser making use of 0.4 cm electrode cuvettes. Cells were electroporated in the presence of […] of linearised pHIVΔRT plasmid and approximately 5 μg of RT PCR product at 250SF and 300 V, followed by a 30-min incubation at room temperature. Subsequently, 10 ml of fresh culture medium was added to the cell suspension and incubation was performed at 37° C. in a humidified atmosphere of 5% CO2.
(§3) During 7 to 10 days following the transfection, cells were monitored for the appearance of cytopathogenic effect (CPE). In the absence thereof, cells were subcultured in different flasks. Subsequently, culture supernatants of transfected cells were used to create a stock of recombinant virus and stored in 1.5 ml aliquots at −70° C.
(§4) After titration of the new viruses, the stocks were used for antiviral experiments in the presence of serial dilutions of different HIV inhibitors. Titres of the harvested supematants were determined by limited serial dilution titration of virus in MT4 cells.
(§5) Viruses with a useful titre were used in antiviral experiments. For this purpose, 96-well microtitre plates were filled with 100μl of complete culture medium. Subsequently, stock solutions of compounds were added in 25 μl volumes to series of duplicate wells. HIV- and mock-infected cell samples were included for each drug (or drug combination). Exponentially growing MT4 cells were then transferred to the microtitre plates at a density of 150,000 cells/ml. The cell cultures were then incubated at 37° C. in a humidified atmosphere of 5% CO2. Five days after infection, the viability of the mock- and HIV-infected cells was examined spectrophotometrically by the M1T method (Pauwels, R. et al. J. Virol. Meth. (1988), 20: 309-321) as described in Section 6 below.
(§6) To each well of the microtiter plates, 20 μl of a solution of MTT (7.5 mg/ml in PBS) was added. The plates were further incubated at 37° C. for 1 h. Then, 150 μl of medium was removed without disturbing the MT4 cell clusters containing the formazan crystals. Solubilization of the formazan crystals was achieved by adding 100 μl 5% Triton X-100 in acidified isopropanol (5 ml concentrated HCl per liter solvent). Complete dissolution of the formazan crystals was obtained after the plates had been placed on a plate shaker for 10 min. Finally the absorbances were read at two wavelengths (540 and 690 nm). From these optical density (OD) data, 50% inhibitory (IC50) and 50% cytotoxic (CC50) concentrations were derived.
An HIV infected patient with a therapy history including RT and protease inhibitors donated plasma whose susceptibility to a number of RT inhibitors and protease inhibitors was determined according to the protocol set out in Example 1. Recombinant wild type HIV strain recIIIb was used as a reference HIV virus.

[2] = tested on: Recombinant wild type HIV strain recIIIB; assay: Antiviral MT4/MTT assay with reference virus recIIIB; details: read-out: Anti-HIV-1 activity IC50 (μM) recIIIB ref (2)
Method: as §4, §5, §6

[3] = tested on: recombinant virus from patient viral RNA (Example 12); assay: Recombinant virus assay (MT4/MTT), patient of Example 12 (therapy history RT and protease inhibitors); details: for IC50: Human immunodeficiency virus 1, Table 8, Example 12 patient virus
Method: as §1, §2, §3, §4, §5, §6
An HIV infected patient with a therapy history including RT and protease inhibitors donated plasma whose susceptibility to a number of RT inhibitors and protease inhibitors was determined according to the protocol set out in Example 1.

[4] = tested on: recombinant virus from patient viral RNA (Example 10, drug-naive patient); assay: Recombinant virus assay (MT4/MTT), drug-naive patient of Example 10; details: for IC50: Human immunodeficiency virus 1, Table 6, Example 10 patient virus
Method: as §1, §2, §3, §4, §5, §6
A drug-naive HIV-infected patient donated plasma whose susceptibility to a number of RT inhibitors and protease inhibitors was determined according to the protocol set out in Example 1. Recombinant wild type HIV strain recIIIB was used as a reference HIV virus.

[5] = MT4 cells, read-out: Anti-HIV-1 activity IC50 (μM) Exp. 1
[6] = MT4 cells, read-out: Anti-HIV-1 activity IC50 (μM) Exp. 2
[7] = mean, read-out: Anti-HIV-1 activity IC50 (μM) Mean (1)

CC(C)(C)NC(=O)[C@@H]1CN(Cc2cccnc2)CCN1C[C@@H](O)C[C@@H](Cc1ccccc1)C(=O)N[C@H]1c2ccccc2C[C@H]1O [indinavir]
susceptibility of the patient's HIV strain (in words) ([1]; Example 11 patient, conclusion from Table 7): decreased susceptibilty | IC50 [1, 5]: 0.229 µM | IC50 [1, 6]: 0.416 µM | IC50 [1, 7]: 0.323 µM | ratio (1)/(2) ([1]; Table 7, patient mean IC50 / recIIIB IC50, Example 11): 12 | IC50 ([2]; Human immunodeficiency virus 1, Table 6, reference run of Example 10): 0.016 µM | IC50 ([2]; Human immunodeficiency virus 1, Table 7, reference run of Example 11): 0.027 µM | IC50 ([2]; Human immunodeficiency virus 1, Table 8, reference run of Example 12): 0.016 µM | susceptibility of the patient's HIV strain (in words) ([3]; Example 12 patient, conclusion from Table 8): decreased susceptibility | IC50 [3, 5]: 0.124 µM | IC50 [3, 7]: 0.124 µM | ratio (1)/(2) ([3]; Table 8, patient mean IC50 / recIIIB IC50, Example 12): 8 | IC50 [4, 5]: 0.013 µM | IC50 [4, 6]: 0.013 µM | IC50 [4, 7]: 0.013 µM | ratio (1)/(2) ([4]; Table 6, patient mean IC50 / recIIIB IC50, Example 10): 0.8
